# Experimental data published in US20210363124A1, “HETEROCYCLYL POLYMETHINE IR CHROMOPHORES” (The Regents of the University of California, priority 2018, published 2021).
# “Also recorded” adds a separate entry of the source.
# Columns and labels:
# Assay type in all cases: physicochemical
# [1] = Absorption spectra of flavylium dyes in dichloromethane (UV-Visible/NIR spectrophotometer)
# Description: (§1) The absorption, emission, and photostability properties of flavylium dyes 3-6 were measured.
# (§2) The absorbance spectra in FIG. 2 and FIGS. 4A-4G were obtained in DCM on a JASCO V-770 UV-Visible/NIR spectrophotometer with a 2000 nm/min or 4000 nm/min scan rate. Plotted are the baseline corrected and normalized data. The emission spectra in FIG. 2 were taken in DCM on either a Horiba Instruments PTI QuantaMaster Series fluorometer (6), a Fluoromax-3 spectrofluorometer (1, 3-5), or home-built InGaAs array detector (Princeton Instruments). For 6 the following parameters were used: ex. 610 nm, emission collected from 620-900 nm, slits 5 nm, step size 1 nm, integration time 1 s. Plotted is the DCM corrected, baseline corrected, normalized data. For 1, and 3-5, the following parameters were used: slits 5 nm, step size 1 nm, integration time, 0.25 s. […]
# (§3) Polymethine dyes disclosed herein are characterized with respect to their photophysics including absorption, emission, extinction coefficient, quantum yields, and fluorescence lifetime. All quantum yields values obtained are absolute quantum yields values measured using an integrating sphere. Photostabilities are evaluated by sample irradiation with high powered LEDs. Additionally, solvatochromism, solvent compatibility, and stability are assessed.
# [2] = Emission spectra and absolute fluorescence quantum yield in dichloromethane (integrating sphere)
# Description: as §1
# Finally, the photoluminescence of Flav7 was compared to the prominent SWIR polymethine dyes, IR-26 and IR-1061. IR-26 has been widely-employed as a standard for this region, while IR-1061 has recently been the active component of nanomaterials for NIR-II in vivo imaging. Despite numerous studies which rely on these dyes, the reported ΦF for IR-26 have been inconsistent, and the ΦF of IR-1061 has yet to be thoroughly characterized. Consequently, to establish that Flav7 is more emissive than existing SWIR polymethine dyes, each dye's emission was directly compared using a SWIR camera. We prepared solutions of 3, IR-26, and IR-1061 in dichloromethane with identical absorbance at 808 nm, excited with a diffuse 808 nm laser, and imaged their emission over 1000-1500 nm.
# as §2, §3
# [3] = Photobleaching under continuous-wave irradiation (532 nm, 0.53 fluence); details: for photostability (in words): dichloromethane, 532 nm irradiation
# Description: Photostabilities of the Flav series were measured under continuous-wave irradiation (532 nm, 0.53 fluence).
# as §3
structure (smiles),measurement,setting,value
"CN1C(=CC=CC=CC=CC2=[N+](C)c3ccccc3C2(C)C)C(C)(C)c2ccccc21.[I-] [HITCI, 1,1′,3,3,3′,3′-hexamethylindotricarbocyanine iodide]",absorption (DCM) λmax,[1],~745 nm
same,absorption (DCM) ε,[1]; at λmax,"~220,000 M^−1cm^−1"
same,ΦF relative to Flav3,[2]; higher ΦF than Flav3,~10 fold
"CN(C)c1ccc2c(c1)OC(c1ccccc1)=C\C2=C/C=C/C=C/c1cc(-c2ccccc2)[o+]c2cc(N(C)C)ccc12.[O-][Cl+3]([O-])([O-])[O-] [Dye 4, 7-(dimethylamino)-4-((1E,3E)-5-((E)-7-(dimethylamino)-2-phenyl-4H-chromen-4-ylidene)penta-1,3-dien-1-yl)-2-phenylchromenylium perchlorate]",photostability (in words),[3]; listed as Flav5,excellent photostabilities; also recorded: desirable photostability
"CN(C)c1ccc2c(c1)OC(c1ccccc1)=C/C2=C\c1cc(-c2ccccc2)[o+]c2cc(N(C)C)ccc12.O=C([O-])C(F)(F)F [Dye 6, (E)-7-(Dimethylamino)-4-((7-(dimethylamino)-2-phenyl-4H-chromen-4-ylidene)methyl)-2-phenylchromenylium 2,2,2-trifluoroacetate]",photostability (in words),[3],excellent photostabilities
"CN(C)c1ccc2c(c1)OC(c1ccccc1)=C/C2=C\C=C\c1cc(-c2ccccc2)[o+]c2cc(N(C)C)ccc12.[O-][Cl+3]([O-])([O-])[O-] [Dye 5, 7-(Dimethylamino)-4-((E)-3-((E)-7-(dimethylamino)-2-phenyl-4H-chromen-4-ylidene)prop-1-en-1-yl)-2-phenylchromenylium perchlorate]",photostability (in words),[3],excellent photostabilities
same,photostability relative to HITCI,[3]; more photostable than HITCI,4 fold
ClC1=C(/C=C/c2cc(-c3ccccc3)[s+]c(-c3ccccc3)c2)CCC/C1=C/C=C1C=C(c2ccccc2)SC(c2ccccc2)=C1.F[B-](F)(F)F [IR-1061],emission (DCM) λmax,[2]; dichloromethane,1081 nm
same,ΦF,"[2]; dichloromethane, absolute quantum yield",0.32±0.04%
